According to patent publication US20230295109A1, “PYRIDINONE COMPOUNDS FOR THE TREATMENT OF AUTOIMMUNE DISEASE” (F. Hoffmann-La Roche AG, priority 2020, published 2023):

Each molecule was assayed against T1, human TLR7 (Homo sapiens, UniProt Q9NYK1) (assay: HEK293-Blue-hTLR-7 cells assay). Details: HEK293-Blue-hTLR7 cells, R848 stimulation, 20 hrs, SEAP reporter; read-out: HEK/hTLR7 IC50.
T1 construct: host or cells: HEK293 (HEK-Blue hTLR7)
T1 sequence (Q9NYK1 27-1049): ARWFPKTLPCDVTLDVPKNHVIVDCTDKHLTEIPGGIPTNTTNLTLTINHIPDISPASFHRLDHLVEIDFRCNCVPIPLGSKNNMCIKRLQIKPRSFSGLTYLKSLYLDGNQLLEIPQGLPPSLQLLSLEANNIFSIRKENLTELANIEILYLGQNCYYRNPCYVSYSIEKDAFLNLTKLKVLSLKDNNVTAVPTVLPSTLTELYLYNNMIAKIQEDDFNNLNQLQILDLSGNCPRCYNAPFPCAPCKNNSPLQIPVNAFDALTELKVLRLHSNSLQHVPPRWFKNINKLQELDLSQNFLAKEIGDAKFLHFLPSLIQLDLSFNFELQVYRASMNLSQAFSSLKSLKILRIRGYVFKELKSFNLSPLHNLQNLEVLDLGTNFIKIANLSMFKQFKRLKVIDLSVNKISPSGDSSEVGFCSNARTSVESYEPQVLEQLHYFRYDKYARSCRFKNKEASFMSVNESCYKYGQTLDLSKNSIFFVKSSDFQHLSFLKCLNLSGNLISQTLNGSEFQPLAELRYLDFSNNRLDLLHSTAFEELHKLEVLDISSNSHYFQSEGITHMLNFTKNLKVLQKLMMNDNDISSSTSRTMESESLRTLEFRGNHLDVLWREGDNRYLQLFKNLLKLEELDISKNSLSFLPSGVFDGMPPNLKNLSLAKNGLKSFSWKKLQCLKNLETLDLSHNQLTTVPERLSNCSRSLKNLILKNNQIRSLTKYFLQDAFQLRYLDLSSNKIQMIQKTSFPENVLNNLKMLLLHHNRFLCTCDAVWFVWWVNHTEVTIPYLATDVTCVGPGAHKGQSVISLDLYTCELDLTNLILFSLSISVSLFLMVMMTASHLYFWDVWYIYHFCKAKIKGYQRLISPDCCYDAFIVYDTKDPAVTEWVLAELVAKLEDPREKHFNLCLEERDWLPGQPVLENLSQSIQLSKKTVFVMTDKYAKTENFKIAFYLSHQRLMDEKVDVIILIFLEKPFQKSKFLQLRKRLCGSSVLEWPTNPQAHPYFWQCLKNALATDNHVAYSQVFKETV
Assay type: cell-based
Source text: A stable HEK293-Blue-hTLR-7 cell line was purchased from InvivoGen (Cat.#: hkb-htlr7, San Diego, California, USA). These cells were originally designed for studying the stimulation of human TLR7 by monitoring the activation of NF-κB. A SEAP (secreted embryonic alkaline phosphatase) reporter gene was placed under the control of the IFN-β minimal promoter fused to five NF-κB and AP-1-binding sites. The SEAP was induced by activating NF-κB and AP-1 via stimulating HEK-Blue hTLR7 cells with TLR7 ligands. Therefore the reporter expression was declined by TLR7 antagonist under the stimulation of a ligand, such as R848 (Resiquimod), for incubation of 20 hrs. The cell culture supernatant SEAP reporter activity was determined using QUANTI-Blue™ kit (Cat.#: rep-qb1, Invivogen, San Diego, Ca, USA) at a wavelength of 640 nm, a detection medium that turns purple or blue in the presence of alkaline phosphatase.
HEK293-Blue-hTLR7 cells were incubated at a density of 250,000~450,000 cells/mL in a volume of 170 µL in a 96-well plate in Dulbecco’s Modified Eagle’s medium (DMEM) containing 4.5 g/L glucose, 50 U/mL penicillin, […], […], 2 mM L-glutamine, 10% (v/v) heat-inactivated fetal bovine serum with addition of 20 µL test compound in a serial dilution in the presence of final DMSO at 1% and 10 µL of 20uM R848 in above DMEM, perform incubation under 37° C. in a CO2 incubator for 20 hrs. Then 20 µL of the supernatant from each well was incubated with 180 µL Quanti-blue substrate solution at 37° C. for 2 hrs and the absorbance was read at 620 \~655 nm using a spectrophotometer. The signaling pathway that TLR7 activation leads to downstream NF-κB activation has been widely accepted, and therefore similar reporter assay was modified for evaluating TLR7 antagonist.

Going from `CCc1nc(N2CCN(Cc3cnc(N4CC5(CNCCO5)C4)nc3)CC2)ccc1-c1cc(C)c(=O)n(C)c1` [Example 1, 5-[2-ethyl-6-[4-[[2-(5-oxa-2,8-diazaspiro[3.5]nonan-2-yl)pyrimidin-5-yl]methyl]piperazin-1-yl]-3-pyridyl]-1,3-dimethyl-pyridin-2-one] to `Cc1cc(-c2ccc(N3CCN(Cc4cnc(N5CC6(CNCCO6)C5)nc4)CC3)nc2C(C)C)cn(C)c1=O` [Example 6, 5-[2-isopropyl-6-[4-[[2-(5-oxa-2,8-diazaspiro[3.5]nonan-2-yl)pyrimidin-5-yl]methyl]piperazin-1-yl]-3-pyridyl]-1,3-dimethyl-pyridin-2-one], the IC50 falls from 9 nM to 5 nM (1.8-fold).

`CCc1nc(N2CCN(Cc3ccc(N4CC5(CNCCO5)C4)nc3)CC2)ccc1-c1cc(C)c(=O)n(C)c1` [Example 2, 5-[2-ethyl-6-[4-[[6-(5-oxa-2,8-diazaspiro[3.5]nonan-2-yl)-3 pyridyl]methyl]piperazin-1-yl]-3-pyridyl]-1,3-dimethyl-pyridin-2-one] and `Cc1cc(-c2ccc(N3CCN(Cc4ccc(N5CCNCC5)nc4)CC3)nc2C(C)C)cn(C)c1=O` [Example 11, 5-[2-isopropyl-6-[4-[(6-piperazin-1-yl-3-pyridyl)methyl]piperazin-1-yl]-3-pyridyl]-1,3-dimethyl-pyridin-2-one] are within 1.5-fold of each other in IC50: 10 nM for the first, 8 nM for the second.

Going from `CCc1nc(N2CCN(Cc3cnc(N4CC(C)(N)C4)nc3)CC2)ccc1-c1cc(C)c(=O)n(C)c1` [Example 3, 5-[6-[4-[[2-(3-amino-3-methyl-azetidin-1-yl)pyrimidin-5-yl]methyl]piperazin-1-yl]-2-ethyl-3-pyridyl]-1,3-dimethyl-pyridin-2-one] to `Cc1cc(-c2ccc(N3CCN(Cc4cnc(N5CC(C)(N)C5)nc4)CC3)nc2C(C)C)cn(C)c1=O` [Example 10, 5-[6-[4-[[2-(3-amino-3-methyl-azetidin-1-yl)pyrimidin-5-yl]methyl]piperazin-1-yl]-2-isopropyl-3-pyridyl]-1,3-dimethyl-pyridin-2-one], the IC50 falls from 14 nM to 7 nM (2-fold). The second is the more potent here.

Compared with `CCc1nc(N2CCN(Cc3cnc(N4CCOC[C@@H](N)C4)nc3)CC2)ccc1-c1cc(C)c(=O)n(C)c1` [Example 4, 5-[6-[4-[[2-[(6S)-6-amino-1,4-oxazepan-4-yl]pyrimidin-5-yl]methyl]piperazin-1-yl]-2-ethyl-3-pyridyl]-1,3-dimethyl-pyridin-2-one], `Cc1cc(-c2ccc(N3CCN(Cc4cnc(N5CCNCC5)nc4)CC3)nc2C(C)C)cn(C)c1=O` [Example 9, 5-[2-isopropyl-6-[4-[(2-piperazin-1-ylpyrimidin-5-yl)methyl]piperazin-1-yl]-3-pyridyl]-1,3-dimethyl-pyridin-2-one] is 3.4-fold lower in IC50: 24 nM for the first, 7 nM for the second. The second is the more potent here.

First: CCc1nc(N2CCN(Cc3ccc(N4CCNCC4)cc3)CC2)ccc1-c1cc(C)c(=O)n(C)c1 [Example 5, 5-[2-ethyl-6-[4-[(4-piperazin-1-ylphenyl)methyl]piperazin-1-yl]-3-pyridyl]-1,3-dimethyl-pyridin-2-one]
Second: Cc1cc(-c2ccc(N3CCN(Cc4ccc(N5CCNCC5)cc4)CC3)nc2C(C)C)cn(C)c1=O [Example 13, 5-[2-isopropyl-6-[4-[(4-piperazin-1-ylphenyl)methyl]piperazin-1-yl]-3-pyridyl]-1,3-dimethyl-pyridin-2-one]
The IC50 of the first is 2-fold lower: 6 nM for the first, 12 nM for the second. The first is the more potent here.

`Cc1cc(-c2ccc(N3CCN(Cc4ccc(N5CCNCC5)cn4)CC3)nc2C(C)C)cn(C)c1=O` [Example 7, 5-[2-isopropyl-6-[4-[(5-piperazin-1-yl-2-pyridyl)methyl]piperazin-1-yl]-3-pyridyl]-1,3-dimethyl-pyridin-2-one] and `Cc1cc(-c2ccc(N3CCN(Cc4cnc(N5CCNCC5)cn4)CC3)nc2C(C)C)cn(C)c1=O` [Example 8, 5-[2-isopropyl-6-[4-[(5-piperazin-1-ylpyrazin-2-yl)methyl]piperazin-1-yl]-3-pyridyl]-1,3-dimethyl-pyridin-2-one] are the same in IC50: 5 nM for the first, 5 nM for the second.

Compared with `Cc1cc(-c2ccc(N3CCN(Cc4ncc(N5CCNCC5)cn4)CC3)nc2C(C)C)cn(C)c1=O` [Example 12, 5-[2-isopropyl-6-[4-[(5-piperazin-1-ylpyrimidin-2-yl)methyl]piperazin-1-yl]-3-pyridyl]-1,3-dimethyl-pyridin-2-one], `Cc1cc(-c2ccc(N3CCN(Cc4cccc(N5CCNCC5)c4)CC3)nc2C(C)C)cn(C)c1=O` [Example 14, 5-[2-isopropyl-6-[4-[(3-piperazin-1-ylphenyl)methyl]piperazin-1-yl]-3-pyridyl]-1,3-dimethyl-pyridin-2-one] is 2.2-fold higher in IC50: 8 nM for the first, 18 nM for the second. The first is the more potent here.

Compared with `Cc1cc(-c2ccc(N3CCN(c4ccc5c(n4)CCNC5)CC3)nc2C(C)C)cn(C)c1=O` [Example 15, 5-[2-isopropyl-6-[4-(5,6,7,8-tetrahydro-1,6-naphthyridin-2-yl)piperazin-1-yl]-3-pyridyl]-1,3-dimethyl-pyridin-2-one], `Cc1cc(-c2ccc(N3CCN4CCN(c5ccc(N6CCNCC6)nc5)CC4C3)nc2C(C)C)cn(C)c1=O` (stereo not shown) [Example 16, 5-[2-isopropyl-6-[8-(6-piperazin-1-yl-3-pyridyl)-3,4,6,7,9,9a-hexahydro-1H-pyrazino[1,2-a]pyrazin-2-yl]-3-pyridyl]-1,3-dimethyl-pyridin-2-one] is 5-fold lower in IC50: 10 nM for the first, 2 nM for the second. The second is the more potent here.

Going from `Cc1cc(-c2ccc(N3CCN(Cc4ccc(N5CCNCC5)cc4)CC3)nc2C(F)F)cn(C)c1=O` [Example 17, 5-[2-(difluoromethyl)-6-[4-[(4-piperazin-1-ylphenyl)methyl]piperazin-1-yl]-3-pyridyl]-1,3-dimethyl-pyridin-2-one] to `Cc1cc(-c2ccc(N3CCC(N4CCNCC4)CC3)nc2C(C)C)cn(C)c1=O` [Example 18, 5-[2-isopropyl-6-(4-piperazin-1-yl-1-piperidyl)-3-pyridyl]-1,3-dimethyl-pyridin-2-one], the IC50 falls from 33 nM to 5 nM (6.6-fold). The second is the more potent here.

In the case of `CCc1nc(N2CCN3CCN(c4cnc(N5CC6(CNCCO6)C5)nc4)CC3C2)ccc1-c1cc(C)c(=O)n(C)c1` (stereo not shown) [Example 19, 5-[2-ethyl-6-[2-[2-(5-oxa-2,8-diazaspiro[3.5]nonan-2-yl)pyrimidin-5-yl]-3,4,6,7,9,9a-hexahydro-1H-pyrazino[1,2-a]pyrazin-8-yl]-3-pyridyl]-1,3-dimethyl-pyridin-2-one], the IC50 is reported as 3 nM.
